Drawing on patent publication US10906897B2, “Microbiocidal heterobicyclic derivatives” (priority 2015, dated 2021), this text covers inhibition of growth and melting point for 19 compounds.

The subject of data set [1] is Botryotinia fuckeliana (Botrytis cinerea). In words: Botryotinia fuckeliana (Botrytis cinerea) / liquid culture (Gray mould). Format: cell-based. Particulars: growth inhibition photometrically 3-4 days after application, compared to untreated control.
Data set [2] concerns Glomerella lagenarium (Colletotrichum lagenarium). In words: Glomerella lagenarium (Colletotrichum lagenarium) / liquid culture (Anthracnose). Particulars: Colletotrichum orbiculare, growth inhibition photometrically 3-4 days after application, compared to untreated control. Format: cell-based.
For data set [3], the system named is Fusarium culmorum. Briefly: microbe, parasite or virus in culture. Format: cell-based. The settings on record: read-out: control of Fusarium culmorum.
For data set [4], the system named is Gaeumannomyces graminis. Briefly: Gaeumannomyces graminis / liquid culture (Take-all of cereals). Format: cell-based. Particulars: growth inhibition photometrically 4-5 days after application, compared to untreated control.
Data set [5] concerns Monographella nivalis (Microdochium nivale). Briefly: Monographella nivalis (Microdochium nivale) / liquid culture (foot rot cereals). Format: cell-based. Particulars: 96 h, growth inhibition photometrically 4-5 days after application, compared to untreated control.
Data set [6] relates to Magnaporthe grisea (Pyricularia oryzae). Briefly: microbe, parasite or virus in culture. The class given is cell-based. The settings on record: read-out: control of Magnaporthe grisea.

`CC1(C)N=C(c2cnc3ccccn23)c2cccc(F)c2C1(C)C` [Compound E-1, 5-fluoro-1-imidazo[1,2-a]pyridin-3-yl-3,3,4,4-tetramethyl-isoquinoline] returned a melting point of 129 to 130 °C. In data set [1], the inhibition of growth at 20 ppm was ≥ 80%. Also, the inhibition of growth at 20 ppm in data set [2] is ≥ 80%. For the same compound, the inhibition of growth at 20 ppm in data set [3] is ≥ 80%. Moreover, the inhibition of growth at 20 ppm in data set [4] is ≥ 80%.

In turn, `CC1(C)Cc2c(Cl)cccc2C(c2cnc3c(OC(F)F)cccn23)=N1` [Compound E-15, 5-chloro-1-[8-(difluoromethoxy)imidazo [1,2-a]pyridin-3-yl]-3,3-dimethyl-4H-isoquinoline] showed a melting point of 114 to 115 °C. In addition, the inhibition of growth at 20 ppm in data set [5] is ≥ 80%.

On to `CCc1cccn2c(C3=NC(C)(C)C(C)(C)c4c(F)cccc43)cnc12` [Compound E-21, 1-(8-ethylimidazo[1,2-a]pyridin-3-yl)-5-fluoro-3,3,4,4-tetramethyl-isoquinoline], for which the inhibition of growth at 20 ppm in data set [1], in data set [2], in data set [3] and in data set [5] was ≥ 80% throughout.

As to `COc1cccn2c(C3=NC(C)(C)C(C)(C)c4c(F)cccc43)cnc12` [Compound E-24, 5-fluoro-1-(8-methoxyimidazo[1,2-a]pyridin-3-yl)-3,3,4,4-tetramethyl-isoquinoline], the melting point amounted to 130 °C. For the same compound, in data set [1], the inhibition of growth at 20 ppm is ≥ 80%. In addition, the inhibition of growth at 20 ppm in data set [2] is ≥ 80%. In data set [5], the inhibition of growth at 20 ppm was ≥ 80%.

The compound `COc1ccc2ncc(C3=NC(C)(C)C(C)(C)c4c(F)cccc43)n2c1` [Compound E-25, 5-fluoro-1-(6-methoxyimidazo[1,2-a]pyridin-3-yl)-3,3,4,4-tetramethyl-isoquinoline] had a melting point of 214 to 215 °C. Moreover, in data set [4], the inhibition of growth at 20 ppm was ≥ 80%.

The compound `CC1(C)N=C(c2cnc3c(C(F)(F)F)cccn23)c2cccc(F)c2C1(C)C` [Compound E-29, 5-fluoro-3,3,4,4-tetramethyl-1-[8-(trifluoromethyl)imidazo [1,2-a]pyridin-3-yl]isoquinoline] had a melting point of 141 to 142 °C. Besides, the inhibition of growth at 20 ppm in data set [1] is ≥ 80%. Moreover, the inhibition of growth at 20 ppm in data set [2] was ≥ 80%. Besides, in data set [5], the inhibition of growth at 20 ppm is ≥ 80%.

Compound `CC1(C)N=C(c2cnc3c(Cl)cccn23)c2cccc(F)c2C1(C)C` [Compound E-32, 1-(8-chloroimidazo[1,2-a]pyridin-3-yl)-5-fluoro-3,3,4,4-tetramethyl-isoquinoline] yielded a melting point of 167 to 168 °C. Also, the inhibition of growth at 20 ppm in data set [1] is ≥ 80%. For the same compound, the inhibition of growth at 20 ppm in data set [2] was ≥ 80%. The inhibition of growth at 20 ppm in data set [3] is ≥ 80%.

Regarding `CC1(C)N=C(c2cnc3c(Br)cccn23)c2cccc(F)c2C1(F)F` [Compound E-37, 1-(8-bromoimidazo[1,2-a]pyridin-3-yl)-4,4,5-trifluoro-3,3-dimethyl-isoquinoline], the inhibition of growth at 20 ppm in data set [2] and in data set [4] was ≥ 80% each time.

Consider `CC1(C)N=C(c2cnc3c(C#N)cccn23)c2cccc(F)c2C1(C)C` [Compound E-38, 3-(5-fluoro-3,3,4,4-tetramethyl-1-isoquinolyl)imidazo[1,2-a]pyridine-8-carbonitrile], for which the inhibition of growth at 20 ppm in data set [1], in data set [2], in data set [4] and in data set [5] was ≥ 80% throughout.

The compound `CC1(C)Cc2ccccc2C(c2cnc3c(Br)cccn23)=N1` [Compound E-41, 1-(8-bromoimidazo[1,2-a]pyridin-3-yl)-3,3-dimethyl-4H-isoquinoline] returned a melting point of 132 to 133 °C. Further, the inhibition of growth at 20 ppm in data set [4] is ≥ 80%.

The compound `Cc1ccn2c(C3=NC(C)(C)C(C)(C)c4c(F)cccc43)cnc2c1Cl` [Compound E-47, 1-(8-chloro-7-methyl-imidazo[1,2-a]pyridin-3-yl)-5-fluoro-3,3,4,4-tetramethyl-isoquinoline] showed a melting point of 185 to 186 °C. In addition, in data set [1], the inhibition of growth at 20 ppm was ≥ 80%. Further, the inhibition of growth at 20 ppm in data set [2] was ≥ 80%. Besides, the inhibition of growth at 20 ppm in data set [3] is ≥ 80%.

Consider `COc1ccn2c(C3=NC(C)(C)C(C)(C)c4c(F)cccc43)cnc2c1` [Compound E-48, 5-fluoro-1-(7-methoxyimidazo[1,2-a]pyridin-3-yl)-3,3,4,4-tetramethyl-isoquinoline], for which the melting point is 139 to 140 °C. In addition, in data set [1], the inhibition of growth at 20 ppm was ≥ 80%. Moreover, the inhibition of growth at 20 ppm in data set [2] is ≥ 80%.

With `CC1(C)N=C(c2cnc3cc(O)ccn23)c2cccc(F)c2C1(C)C` [Compound E-49, 3-(5-fluoro-3,3,4,4-tetramethyl-1-isoquinolyl)imidazo[1,2-a]pyridin-7-ol], the melting point was 246 to 247 °C. The inhibition of growth at 20 ppm in data set [1] was ≥ 80%. Further, the inhibition of growth at 20 ppm in data set [2] is ≥ 80%.

On to `Cc1cccn2c(C3=NCC4(CCC4)c4ccccc43)cnc12` [Compound E-53, 1-(8-methylimidazo[1,2-a]pyridin-3-yl)spiro[3H-isoquinoline-4,1′-cyclobutane]], for which the melting point lay within 127 to 129 °C. Further, the inhibition of growth at 20 ppm in data set [1] is ≥ 80%. For the same compound, in data set [5], the inhibition of growth at 20 ppm is ≥ 80%. Besides, the inhibition of growth at 60 ppm in data set [6] is ≥ 80%.

For `CC1(C)N=C(c2cnc3c(Cl)c(Cl)ccn23)c2ccccc2C1(F)F` [Compound E-56, 1-(7,8-dichloroimidazo[1,2-a]pyridin-3-yl)-4,4-difluoro-3,3-dimethyl-isoquinoline], the melting point is > 210 °C. The inhibition of growth at 20 ppm in data set [1] is ≥ 80%. The inhibition of growth at 60 ppm in data set [6] is ≥ 80%.

As to `CC1(C)N=C(c2cnn3ccccc23)c2cccc(F)c2C1(C)C` [Compound E-58, 5-fluoro-3,3,4,4-tetramethyl-1-pyrazolo[1,5-a]pyridin-3-yl-isoquinoline], the melting point lay within 124 to 126 °C. For the same compound, the inhibition of growth at 20 ppm in data set [1] is ≥ 80%. The inhibition of growth at 20 ppm in data set [2] is ≥ 80%. Moreover, the inhibition of growth at 20 ppm in data set [4] was ≥ 80%.

As to `Cc1ccc2c(C3=NC(C)(C)C(=O)c4cc(F)ccc43)cnn2c1C` [Compound E-74, 1-(6,7-dimethylpyrazolo[1,5-a]pyridin-3-yl)-6-fluoro-3,3-dimethyl-isoquinolin-4-one], the melting point was in the range of 168 to 170 °C. Moreover, the inhibition of growth at 20 ppm in data set [1] was ≥ 80%. For the same compound, the inhibition of growth at 20 ppm in data set [2] is ≥ 80%. Also, the inhibition of growth at 20 ppm in data set [3] was ≥ 80%. Moreover, in data set [6], the inhibition of growth at 60 ppm was ≥ 80%.

Consider `Cc1c(Br)ccc2c(C3=NC(C)(C)C(=O)c4ccccc43)cnn12` [Compound E-78, 1-(6-bromo-7-methyl-pyrazolo[1,5-a]pyridin-3-yl)-3,3-dimethyl-isoquinolin-4-one], for which the melting point is 166 to 168 °C. The inhibition of growth at 20 ppm in data set [1] is ≥ 80%. Also, the inhibition of growth at 20 ppm in data set [2] is ≥ 80%. The inhibition of growth at 20 ppm in data set [3] was ≥ 80%. Moreover, the inhibition of growth at 20 ppm in data set [5] is ≥ 80%. Further, in data set [6], the inhibition of growth at 60 ppm is ≥ 80%.

As to `CC1(C)N=C(c2cnn3cc(C#N)ccc23)c2ccccc2C1(F)F` [Compound E-85, 3-(4,4-difluoro-3,3-dimethyl-1-isoquinolyl)pyrazolo[1,5-a]pyridine-6-carbonitrile], the melting point lay in the range of 191 to 194 °C. Moreover, the inhibition of growth at 20 ppm in data set [1] was ≥ 80%. Moreover, the inhibition of growth at 60 ppm in data set [6] was ≥ 80%.
